Results as given in US10927123B2, “Modulators of the beta-3 adrenergic receptor useful for the treatment or prevention of disorders related thereto” (Arena Pharmaceuticals, Inc., priority 2016, dated 2021).

biological target: Beta-3 Adrenergic Receptor (Homo sapiens (Human), UniProt P13945); assay: HTRF cAMP antagonist assay (IC50 determination); format: cell-based; conditions: CHO-K1 cells stably expressing recombinant receptor; antagonism of isoproterenol at EC90; cAMP readout
Outline: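 CHO-K1 cells stably expressing receptor, 1500 cells/well, preincubated briefly with 10-point 5-fold compound series (top final typically 10 or 100 μM) in PBS with 1 mM IBMX, then challenged with isoproterenol at EC90 for 1 h at room temperature. cAMP read by HTRF against on-plate standard curve; IC50 from dose-response.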

Sequence of Beta-3 Adrenergic Receptor (P13945 whole entry, species assumed): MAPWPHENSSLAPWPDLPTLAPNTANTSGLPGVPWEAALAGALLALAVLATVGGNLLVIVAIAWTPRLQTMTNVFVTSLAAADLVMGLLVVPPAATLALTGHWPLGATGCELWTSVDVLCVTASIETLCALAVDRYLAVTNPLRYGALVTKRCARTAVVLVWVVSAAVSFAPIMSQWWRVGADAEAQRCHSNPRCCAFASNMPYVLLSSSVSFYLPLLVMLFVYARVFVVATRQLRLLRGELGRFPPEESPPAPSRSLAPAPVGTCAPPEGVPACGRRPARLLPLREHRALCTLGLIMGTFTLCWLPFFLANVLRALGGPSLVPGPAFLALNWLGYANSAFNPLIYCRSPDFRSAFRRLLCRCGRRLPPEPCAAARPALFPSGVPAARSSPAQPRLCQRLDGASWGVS

Structure (SMILES)	IC50 [µM]
NCc1ccc(-c2ccc(S(=O)(=O)N3CCC4(CC3)C[C@@H](NC[C@H](O)COc3cccc(S(=O)(=O)CCO)c3)CO4)cc2)cc1 [Compound 103, (S)-1-((R)-8-(4′-(aminomethyl)biphenyl-4-ylsulfonyl)-1-oxa-8-azaspiro[4.5]decan-3-ylamino)-3-(3-(2-hydroxyethylsulfonyl)phenoxy)propan-2-ol]	1.2
NC(=O)CCS(=O)(=O)c1cccc(OC[C@@H](O)CN[C@H]2COC3(CCN(S(=O)(=O)c4cnc5ccccc5c4)CC3)C2)c1 [Compound 142, 3-(3-((S)-2-hydroxy-3-((R)-8-(quinolin-3-ylsulfonyl)-1-oxa-8-azaspiro[4.5]decan-3-ylamino)propoxy)phenylsulfonyl)propanamide]	0.106
O=S(=O)(CCCO)c1cccc(OC[C@@H](O)CN[C@H]2COC3(CCN(S(=O)(=O)c4cnc5ccccc5c4)CC3)C2)c1 [Compound 135, 3-(3-((S)-2-hydroxy-3-((R)-8-(quinolin-3-ylsulfonyl)-1-oxa-8-azaspiro[4.5]decan-3-ylamino)propoxy)phenylsulfonyl)propan-1-ol]	0.0888
Cc1ccc(-c2cccc(S(=O)(=O)N3CCC4(CC3)C[C@@H](NC[C@H](O)COc3cccc(S(=O)(=O)CCO)c3)CO4)c2)nc1 [Compound 127, (S)-1-(3-(2-hydroxyethylsulfonyl)phenoxy)-3-((R)-8-(3-(5-methylpyridin-2-yl)phenylsulfonyl)-1-oxa-8-azaspiro[4.5]decan-3-ylamino)propan-2-ol]	0.157
CCn1cc(S(=O)(=O)N2CCC3(CC2)C[C@@H](NC[C@H](O)COc2cccc(S(=O)(=O)C4(CO)CC4)c2)CO3)c(=O)c2ccccc21 [Compound 292, 1-ethyl-3-((R)-3-((S)-2-hydroxy-3-(3-(1-(hydroxymethyl)cyclopropylsulfonyl)phenoxy)propylamino)-1-oxa-8-azaspiro[4.5]decan-8-ylsulfonyl)quinolin-4(1H)-one]	0.0902
CCn1cc(S(=O)(=O)N2CCC3(CC2)C[C@@H](NC[C@H](O)COc2cccc(S(=O)(=O)COC)c2)CO3)c(=O)c2ccccc21 [Compound 306, 1-ethyl-3-((R)-3-((S)-2-hydroxy-3-(3-(methoxymethylsulfonyl)phenoxy)propylamino)-1-oxa-8-azaspiro[4.5]decan-8-ylsulfonyl)quinolin-4(1H)-one]	0.0629
CCOc1ccc(-c2ccc(C3(N)CC3)cc2)cc1S(=O)(=O)N1CCC2(CC1)C[C@@H](NC[C@H](O)COc1cccc(S(=O)(=O)C3(CO)CC3)c1)CO2 [Compound 172, (S)-1-((R)-8-(4′-(1-aminocyclopropyl)-4-ethoxybiphenyl-3-ylsulfonyl)-1-oxa-8-azaspiro[4.5]decan-3-ylamino)-3-(3-(1-(hydroxymethyl)cyclopropylsulfonyl)phenoxy)propan-2-ol]	0.0503
CCOc1ccc(-c2ccc(C(C)(C)N)cc2)cc1S(=O)(=O)N1CCC2(CC1)CC(NC[C@H](O)COc1cccc(S(=O)(=O)C3(CO)CC3)c1)CO2 (stereo partly shown) [Compound 251]	0.0516
CS(=O)(=O)c1cccc(OC[C@@H](O)CNC2COC3(CCN(C(=O)c4c[nH]c5ccccc45)CC3)C2)c1 (stereo partly drawn) [Compound 66, (3-((S)-2-hydroxy-3-(3-(methylsulfonyl)phenoxy)propylamino)-1-oxa-8-azaspiro[4.5]decan-8-yl)(1H-indol-3-yl)methanone]	0.982
CCOc1ccc(-c2ccc(C3(N)CC3)cc2)cc1S(=O)(=O)N1CCC2(CC1)C[C@@H](NC[C@H](O)COc1cccc(S(=O)(=O)C3CC3)c1)CO2 [Compound 254, (S)-1-((R)-8-(4′-(1-aminocyclopropyl)-4-ethoxybiphenyl-3-ylsulfonyl)-1-oxa-8-azaspiro[4.5]decan-3-ylamino)-3-(3-(cyclopropylsulfonyl)phenoxy)propan-2-ol]	0.0418
CS(=O)(=O)c1cccc(OC[C@H](O)CN[C@@H]2COC3(CCN(S(=O)(=O)c4ccc5ccccc5c4)CC3)C2)c1 [Compound 33, (R)-1-(3-(methylsulfonyl)phenoxy)-3-((S)-8-(naphthalen-2-ylsulfonyl)-1-oxa-8-azaspiro[4.5]decan-3-ylamino)propan-2-ol]	0.189
O=S(=O)(CCCC(F)(F)F)c1cccc(OC[C@@H](O)CNC2COC3(CCN(S(=O)(=O)c4ccc5ccccc5c4)CC3)C2)c1 (stereo partly drawn) [Compound 14, (2S)-1-(8-(naphthalen-2-ylsulfonyl)-1-oxa-8-azaspiro[4.5]decan-3-ylamino)-3-(3-(4,4,4-trifluorobutylsulfonyl)phenoxy)propan-2-ol]	0.0567
CCOc1ccc(-c2ccc(CCNC(C)=O)cc2)cc1S(=O)(=O)N1CCC2(CC1)C[C@H](NC[C@H](O)COc1cccc(S(=O)(=O)C3(CO)CC3)c1)CO2 [Compound 177, N-(2-(4′-ethoxy-3′-((S)-3-((S)-2-hydroxy-3-(3-(1-(hydroxymethyl)cyclopropylsulfonyl)phenoxy)propylamino)-1-oxa-8-azaspiro[4.5]decan-8-ylsulfonyl)biphenyl-4-yl)ethyl)acetamide]	0.0506

Compounds with a lower IC50, results first:

IC50 [µM]	Structure (SMILES)
0.0206	O=S(=O)(c1cnc(Cl)c(Br)c1)N1CCC2(CC1)C[C@@H](NC[C@H](O)COc1cccc(S(=O)(=O)C3(CO)CC3)c1)CO2 [Compound 221, (S)-1-((R)-8-(5-bromo-6-chloropyridin-3-ylsulfonyl)-1-oxa-8-azaspiro[4.5]decan-3-ylamino)-3-(3-(1-(hydroxymethyl)cyclopropylsulfonyl)phenoxy)propan-2-ol]
0.0178	CS(=O)(=O)c1cccc(OC[C@@H](O)CN[C@@H]2COC3(CCN(S(=O)(=O)c4cnc5ccccc5c4)CC3)C2)c1 [Compound 85, (S)-1-(3-(methylsulfonyl)phenoxy)-3-((S)-8-(quinolin-3-ylsulfonyl)-1-oxa-8-azaspiro[4.5]decan-3-ylamino)propan-2-ol]
0.015	CC(F)S(=O)(=O)c1cccc(OC[C@@H](O)CN[C@H]2COC3(CCN(S(=O)(=O)c4cnc5c(c4)N(C)CCO5)CC3)C2)c1 (stereo partly drawn) [Compound 235, (2S)-1-(3-(1-fluoroethylsulfonyl)phenoxy)-3-((R)-8-(1-methyl-2,3-dihydro-1H-pyrido[2,3-b][1,4]oxazin-7-ylsulfonyl)-1-oxa-8-azaspiro[4.5]decan-3-ylamino)propan-2-ol]
0.0289	Cc1cccc2c(O)c(S(=O)(=O)N3CCC4(CC3)C[C@@H](NC[C@H](O)COc3cccc(S(=O)(=O)C5CC5)c3)CO4)cnc12 [Compound 327, 3-((R)-3-((S)-3-(3-(cyclopropylsulfonyl)phenoxy)-2-hydroxypropylamino)-1-oxa-8-azaspiro[4.5]decan-8-ylsulfonyl)-8-methylquinolin-4-ol]
0.0211	CCC(C)(C)NCc1ccc(-c2cccc(S(=O)(=O)N3CCC4(CC3)C[C@H](NC[C@H](O)COc3cccc(S(=O)(=O)C5(CO)CC5)c3)CO4)c2)cc1 [Compound 241, (S)-1-(3-(1-(hydroxymethyl)cyclopropylsulfonyl)phenoxy)-3-((S)-8-(4′-((tert-pentylamino)methyl)biphenyl-3-ylsulfonyl)-1-oxa-8-azaspiro[4.5]decan-3-ylamino)propan-2-ol]
0.0225	Cc1ccc2ncc(S(=O)(=O)N3CCC4(CC3)C[C@@H](NC[C@H](O)COc3cccc(S(=O)(=O)C5CC5)c3)CO4)c(O)c2c1 [Compound 324, 3-((R)-3-((S)-3-(3-(cyclopropylsulfonyl)phenoxy)-2-hydroxypropylamino)-1-oxa-8-azaspiro[4.5]decan-8-ylsulfonyl)-6-methylquinolin-4-ol]
0.0355	O=S(=O)(c1cccc(-c2ccc(CNCC(F)(F)F)cc2)c1)N1CCC2(CC1)C[C@H](NC[C@H](O)COc1cccc(S(=O)(=O)C3(CO)CC3)c1)CO2 [Compound 242, (S)-1-(3-(1-(hydroxymethyl)cyclopropylsulfonyl)phenoxy)-3-((S)-8-(4′-((2,2,2-trifluoroethylamino)methyl)biphenyl-3-ylsulfonyl)-1-oxa-8-azaspiro[4.5]decan-3-ylamino)propan-2-ol]
0.0244	CS(=O)(=O)c1cccc(OC[C@@H](O)CNC2COC3(CCN(S(=O)(=O)c4cccc(-c5ccc(N)nc5)c4)CC3)C2)c1 (stereo partly drawn) [Compound 70, (2S)-1-(8-(3-(6-aminopyridin-3-yl)phenylsulfonyl)-1-oxa-8-azaspiro[4.5]decan-3-ylamino)-3-(3-(methylsulfonyl)phenoxy)propan-2-ol]
0.026	NCCc1ccc(-c2cccc(S(=O)(=O)N3CCC4(CC3)C[C@@H](NC[C@H](O)COc3cccc(S(=O)(=O)C5(CO)CC5)c3)CO4)c2)cc1 [Compound 212, (S)-1-((R)-8-(4′-(2-aminoethyl)biphenyl-3-ylsulfonyl)-1-oxa-8-azaspiro[4.5]decan-3-ylamino)-3-(3-(1-(hydroxymethyl)cyclopropylsulfonyl)phenoxy)propan-2-ol]
0.0348	COc1ccc(S(=O)(=O)N2CCC3(CC2)C[C@@H](NC[C@H](O)COc2cccc(S(=O)(=O)C4(CO)CC4)c2)CO3)cc1-c1ccc(CN)cc1 [Compound 208, (S)-1-((R)-8-(4′-(aminomethyl)-6-methoxybiphenyl-3-ylsulfonyl)-1-oxa-8-azaspiro[4.5]decan-3-ylamino)-3-(3-(1-(hydroxymethyl)cyclopropylsulfonyl)phenoxy)propan-2-ol]
0.0345	O=S(=O)(c1cccc(OC[C@@H](O)CN[C@H]2COC3(CCN(S(=O)(=O)c4c[nH]c5ccccc45)CC3)C2)c1)C1CC1 [Compound 308, (S)-1-((R)-8-(1H-indol-3-ylsulfonyl)-1-oxa-8-azaspiro[4.5]decan-3-ylamino)-3-(3-(cyclopropylsulfonyl)phenoxy)propan-2-ol]
0.0257	O=S(=O)(c1cnc2ccccc2c1)N1CCC2(CC1)C[C@@H](NC[C@H](O)COc1cccc(S(=O)(=O)C3(CO)CCC3)c1)CO2 [Compound 107, (S)-1-(3-(1-(hydroxymethyl)cyclobutylsulfonyl)phenoxy)-3-((R)-8-(quinolin-3-ylsulfonyl)-1-oxa-8-azaspiro[4.5]decan-3-ylamino)propan-2-ol]
